From ChEMBL document CHEMBL1759974, “Discovery of triazine-benzimidazoles as selective inhibitors of mTOR” (Bioorg Med Chem Lett, 2011)
In brackets after ≈: the same amount, converted by molar mass. Activity calls are given as the source filed them. The calls are words filed in the database; no cut-off is given here.

Experiments:
[1] = molecular target: Serine/threonine-protein kinase mTOR (Rattus norvegicus) (UniProt P42346); assay: Inhibition of HGF induced mTOR activation in rat liver assessed as inhibition of AKT phosphorylation at S473 at 30 mg/kg, ip 6 hrs prior to HGF stimulation by MSD analysis; assay type: organism-based; parameters: dose 30 mg/kg; scale not given: the % may be the effect or the level left
[2] = molecular target: Serine/threonine-protein kinase mTOR (Rattus norvegicus) (UniProt P42346); assay: Inhibition of HGF induced mTOR activation in rat liver assessed as inhibition of AKT phosphorylation at S473 at 100 mg/kg, ip 6 hrs prior to HGF stimulation by MSD analysis; assay type: organism-based; parameters: dose 100 mg/kg
[3] = molecular target: Serine/threonine-protein kinase mTOR (Rattus norvegicus) (UniProt P42346); assay: Inhibition of HGF induced mTOR activation in rat liver assessed as inhibition of S6RP phosphorylation at 100 mg/kg, ip 6 hrs prior to HGF stimulation by MSD analysis; assay type: organism-based; parameters: dose 100 mg/kg
Rattus norvegicus [4] = assay: Inhibition of HGF induced mTOR activation in ip dosed rat liver assessed as inhibition of AKT phosphorylation at S473 administered 6 hrs prior to HGF stimulation by MSD analysis; assay type: functional, organism-based
Rattus norvegicus [5] = assay: AUC in rat at 2 mg/kg, po; assay type: ADME, organism-based, Plasma; parameters: dose 2 mg/kg, route oral; details: in vivo
[6] = AUC in rat at 50 mg/kg, po; assay type: ADME, organism-based; parameters: dose 50 mg/kg, route oral; details: plasma
[7] = Clearance in Sprague-Dawley rat at 1 mg/kg, iv and 2 mg/kg, po; assay type: ADME, organism-based; details: in vivo
[8] = Volume of distribution at steady state in Sprague-Dawley rat at 1 mg/kg, iv and 2 mg/kg, po; assay type: ADME, organism-based; details: in vivo, read-out: Vdss
Rattus norvegicus [9] = assay: AUC in Sprague-Dawley rat at 1 mg/kg, iv; assay type: ADME, organism-based, Plasma; parameters: dose 1 mg/kg, route intravenous; details: in vivo
[10] = Half life in Sprague-Dawley rat at 1 mg/kg, iv; assay type: ADME, organism-based; parameters: dose 1 mg/kg, route intravenous; details: in vivo
[11] = Oral bioavailability in Sprague-Dawley rat at 2 mg/kg; assay type: ADME, organism-based; details: in vivo
[12] = Plasma protein binding in Sprague-Dawley rat at 1 mg/kg, iv and 2 mg/kg, po; assay type: ADME, organism-based; details: read-out: PPB (converted)
[13] = Solubility of compound in 0.01 N HCL; assay type: physicochemical; details: 0.01 N HCl; read-out: solubility
[14] = molecular target: T1, Serine/threonine-protein kinase mTOR (Homo sapiens, UniProt P42345)
[15] = molecular target: T1, Serine/threonine-protein kinase mTOR; remark: listed apart in the source
[16] = molecular target: T1, Serine/threonine-protein kinase mTOR; remark: listed apart in the source
Description: Inhibition of mTOR in human U-87 cells assessed as inhibition of phosphorylation of AKT at S473

[17] = molecular target: Phosphatidylinositol 4,5-bisphosphate 3-kinase catalytic subunit alpha isoform (Homo sapiens, UniProt P42336)
[18] = molecular target: Phosphatidylinositol 4,5-bisphosphate 3-kinase catalytic subunit beta isoform (Homo sapiens, UniProt P42338)
[19] = molecular target: T2, Phosphatidylinositol 4,5-bisphosphate 3-kinase catalytic subunit delta isoform (Homo sapiens, UniProt O00329)
T2 sequence (O00329 whole entry): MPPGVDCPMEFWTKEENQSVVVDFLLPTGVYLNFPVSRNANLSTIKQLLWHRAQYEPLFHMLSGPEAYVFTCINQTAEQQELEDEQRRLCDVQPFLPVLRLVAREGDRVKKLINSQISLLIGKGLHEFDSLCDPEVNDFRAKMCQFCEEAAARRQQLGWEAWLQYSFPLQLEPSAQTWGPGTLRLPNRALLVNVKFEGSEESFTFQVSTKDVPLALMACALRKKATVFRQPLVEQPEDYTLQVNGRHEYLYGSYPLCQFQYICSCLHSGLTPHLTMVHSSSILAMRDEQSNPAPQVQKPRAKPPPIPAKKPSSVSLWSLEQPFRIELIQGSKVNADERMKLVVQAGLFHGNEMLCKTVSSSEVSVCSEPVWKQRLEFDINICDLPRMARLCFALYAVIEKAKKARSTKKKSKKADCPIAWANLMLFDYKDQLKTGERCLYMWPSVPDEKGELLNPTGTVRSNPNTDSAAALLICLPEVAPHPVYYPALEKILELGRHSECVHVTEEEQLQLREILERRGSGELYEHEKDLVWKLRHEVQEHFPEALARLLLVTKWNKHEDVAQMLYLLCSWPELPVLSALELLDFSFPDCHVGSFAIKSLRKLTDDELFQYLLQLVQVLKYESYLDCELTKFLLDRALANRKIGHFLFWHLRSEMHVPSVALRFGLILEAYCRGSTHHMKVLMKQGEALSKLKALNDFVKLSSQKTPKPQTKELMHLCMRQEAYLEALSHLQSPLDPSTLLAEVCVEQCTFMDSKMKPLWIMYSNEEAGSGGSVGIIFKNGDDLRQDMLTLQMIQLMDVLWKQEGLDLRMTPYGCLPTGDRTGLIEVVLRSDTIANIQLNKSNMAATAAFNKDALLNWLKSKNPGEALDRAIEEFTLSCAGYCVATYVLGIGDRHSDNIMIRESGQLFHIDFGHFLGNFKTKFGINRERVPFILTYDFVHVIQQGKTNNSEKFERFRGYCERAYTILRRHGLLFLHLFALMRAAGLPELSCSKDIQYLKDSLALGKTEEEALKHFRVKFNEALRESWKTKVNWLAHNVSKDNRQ

[20] = molecular target: Phosphatidylinositol 4,5-bisphosphate 3-kinase catalytic subunit gamma isoform (Homo sapiens, UniProt P48736)
BT-474 = assay: Antiproliferative activity against human BT474 cells harboring HER2/PI3K/p53 mutant gene at 1 uM after 72 hrs by Ambit assay in presence of 10% serum; assay type: functional, cell-based; details: BT-474, 72 h
UACC-893 = assay: Antiproliferative activity against human UACC-893 cells harboring HER2/PI3K/p53 mutant gene at 1 uM after 72 hrs by Ambit assay in presence of 10% serum; assay type: functional, cell-based; details: UACC-893, 72 h
A-375 = assay: Antiproliferative activity against human A375 cells harboring BRAF gene mutation/amplification at 1 uM after 72 hrs by Ambit assay in presence of 10% serum; assay type: functional, cell-based; details: A-375, 72 h
A549 = assay: Antiproliferative activity against human A549 cells harboring KRAS/LKB1 gene mutation/amplification at 1 uM after 72 hrs by Ambit assay in presence of 10% serum; assay type: functional, cell-based; details: A549, 72 h
Calu-6 = assay: Antiproliferative activity against human Calu6 harboring KRAS gene mutation/amplification at 1 uM after 72 hrs by Ambit assay in presence of 10% serum; assay type: functional, cell-based; details: Calu-6, 72 h
CAL-51 = assay: Antiproliferative activity against human CAL51 harboring PI3K/PTEN gene mutation/amplification at 1 uM after 72 hrs by Ambit assay in presence of 10% serum; assay type: functional, cell-based; details: CAL-51, 72 h
COLO-829 = assay: Antiproliferative activity against human COLO829 harboring BRAF/PTEN gene mutation/amplification at 1 uM after 72 hrs by Ambit assay in presence of 10% serum; assay type: functional, cell-based; details: COLO-829, 72 h
DU-4475 = assay: Antiproliferative activity against human DU4475 harboring BRAF/APC/RB gene mutation/amplification at 1 uM after 72 hrs by Ambit assay in presence of 10% serum; assay type: functional, cell-based; details: DU-4475, 72 h
HCC1954 = assay: Antiproliferative activity against human HCC1954 harboring PI3K/p53 gene mutation/amplification at 1 uM after 72 hrs by Ambit assay in presence of 10% serum; assay type: functional, cell-based; details: HCC1954, 72 h
MCF7 = assay: Antiproliferative activity against human MCF7 harboring PI3K gene mutation/amplification at 1 uM after 72 hrs by Ambit assay in presence of 10% serum; assay type: functional, cell-based; details: MCF7, 72 h
MDA-MB-231 = assay: Antiproliferative activity against human MDA-MB-231 harboring KRAS/BRAF/p53 gene mutation/amplification at 1 uM after 72 hrs by Ambit assay in presence of 10% serum; assay type: functional, cell-based; details: MDA-MB-231, 72 h
MDA-MB-468 = assay: Antiproliferative activity against human MDA-MB-468 harboring PTEN/EGFR/p53 gene mutation/amplification at 1 uM after 72 hrs by Ambit assay in presence of 10% serum; assay type: functional, cell-based; details: MDA-MB-468, 72 h
NCI-H2009 = assay: Antiproliferative activity against human NCI-H2009 harboring KRAS/RB/p53 gene mutation/amplification at 1 uM after 72 hrs by Ambit assay in presence of 10% serum; assay type: functional, cell-based; details: NCI-H2009, 72 h
NCI-H1975 = assay: Antiproliferative activity against human NCI-H1975 harboring PI3K/EGFR/p53 gene mutation/amplification at 1 uM after 72 hrs by Ambit assay in presence of 10% serum; assay type: functional, cell-based; details: NCI-H1975, 72 h
NCI-H460 = assay: Antiproliferative activity against human NCI-H460 harboring PI3K/KRAS/LKB1 gene mutation/amplification at 1 uM after 72 hrs by Ambit assay in presence of 10% serum; assay type: functional, cell-based; details: NCI-H460, 72 h
NCI-H82 = assay: Antiproliferative activity against human NCI-H82 harboring CMYC/RB gene mutation/amplification at 1 uM after 72 hrs by Ambit assay in presence of 10% serum; assay type: functional, cell-based; details: NCI-H82, 72 h
SK-MEL-28 = assay: Antiproliferative activity against human SK-MEL-28 harboring BRAF gene mutation/amplification at 1 uM after 72 hrs by Ambit assay in presence of 10% serum; assay type: functional, cell-based; details: SK-MEL-28, 72 h
[21] = Antiproliferative activity against human U87MG harboring PTEN gene mutation/amplification at 1 uM after 72 hrs by Ambit assay in presence of 10% serum; assay type: functional, U-87MG ATCC; details: U-87 MG
[22] = molecular target: TGF-beta receptor type-2 (Homo sapiens) (UniProt P37173); assay: Inhibition of TGFBR2 assessed as inhibition of TGFbeta induced SMAD phosphorylation at 1 uM relative to control
[23] = molecular target: TGF-beta receptor type-2 (Homo sapiens) (UniProt P37173); assay: Inhibition of TGFBR2 assessed as inhibition of TGFbeta induced SMAD phosphorylation at 10 uM relative to control

Sequence of TGF-beta receptor type-2 (Homo sapiens) (P37173 whole entry): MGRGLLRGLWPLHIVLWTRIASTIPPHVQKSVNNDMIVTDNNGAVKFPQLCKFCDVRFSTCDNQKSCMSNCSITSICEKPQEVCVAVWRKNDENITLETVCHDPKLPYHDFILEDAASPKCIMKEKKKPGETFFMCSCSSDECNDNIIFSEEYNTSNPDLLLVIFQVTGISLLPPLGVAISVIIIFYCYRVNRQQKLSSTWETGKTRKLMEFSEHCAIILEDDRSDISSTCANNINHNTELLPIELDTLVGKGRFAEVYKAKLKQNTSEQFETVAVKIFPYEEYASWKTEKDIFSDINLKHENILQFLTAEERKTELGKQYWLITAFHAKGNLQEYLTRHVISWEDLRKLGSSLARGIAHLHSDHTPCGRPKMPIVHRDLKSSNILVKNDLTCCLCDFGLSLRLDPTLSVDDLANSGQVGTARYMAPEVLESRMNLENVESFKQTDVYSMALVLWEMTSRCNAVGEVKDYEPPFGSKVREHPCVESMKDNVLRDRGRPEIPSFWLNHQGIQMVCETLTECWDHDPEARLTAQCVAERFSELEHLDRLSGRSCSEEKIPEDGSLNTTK
Sequence of Phosphatidylinositol 4,5-bisphosphate 3-kinase catalytic subunit alpha isoform (P42336 whole entry, canonical isoform): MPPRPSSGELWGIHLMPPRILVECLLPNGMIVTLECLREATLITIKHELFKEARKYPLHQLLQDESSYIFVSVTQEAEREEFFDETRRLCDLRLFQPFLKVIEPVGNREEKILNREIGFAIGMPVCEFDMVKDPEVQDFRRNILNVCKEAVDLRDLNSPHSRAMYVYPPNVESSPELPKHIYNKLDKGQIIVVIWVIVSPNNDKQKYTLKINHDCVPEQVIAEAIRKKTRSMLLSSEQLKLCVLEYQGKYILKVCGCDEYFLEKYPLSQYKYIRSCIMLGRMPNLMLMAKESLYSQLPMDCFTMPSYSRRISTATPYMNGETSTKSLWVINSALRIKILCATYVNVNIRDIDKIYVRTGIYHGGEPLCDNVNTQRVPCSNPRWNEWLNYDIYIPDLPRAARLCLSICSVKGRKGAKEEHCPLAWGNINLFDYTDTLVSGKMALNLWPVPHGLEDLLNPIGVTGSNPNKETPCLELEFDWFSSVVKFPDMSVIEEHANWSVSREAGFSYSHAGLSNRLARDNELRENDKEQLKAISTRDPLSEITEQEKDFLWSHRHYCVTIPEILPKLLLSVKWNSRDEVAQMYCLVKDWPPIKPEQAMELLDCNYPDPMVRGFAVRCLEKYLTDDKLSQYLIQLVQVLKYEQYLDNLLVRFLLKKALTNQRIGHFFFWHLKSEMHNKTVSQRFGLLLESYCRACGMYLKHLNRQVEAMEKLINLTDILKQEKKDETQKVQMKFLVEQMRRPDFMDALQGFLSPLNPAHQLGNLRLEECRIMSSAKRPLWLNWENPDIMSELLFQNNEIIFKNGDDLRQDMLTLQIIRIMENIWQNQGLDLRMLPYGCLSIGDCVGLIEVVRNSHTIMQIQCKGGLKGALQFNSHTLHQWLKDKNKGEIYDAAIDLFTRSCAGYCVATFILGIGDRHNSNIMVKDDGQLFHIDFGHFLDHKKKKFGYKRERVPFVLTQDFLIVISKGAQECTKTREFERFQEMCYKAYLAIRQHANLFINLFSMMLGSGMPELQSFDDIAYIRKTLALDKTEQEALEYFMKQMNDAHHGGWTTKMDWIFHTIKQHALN
Sequence of Phosphatidylinositol 4,5-bisphosphate 3-kinase catalytic subunit gamma isoform (P48736 whole entry, canonical isoform): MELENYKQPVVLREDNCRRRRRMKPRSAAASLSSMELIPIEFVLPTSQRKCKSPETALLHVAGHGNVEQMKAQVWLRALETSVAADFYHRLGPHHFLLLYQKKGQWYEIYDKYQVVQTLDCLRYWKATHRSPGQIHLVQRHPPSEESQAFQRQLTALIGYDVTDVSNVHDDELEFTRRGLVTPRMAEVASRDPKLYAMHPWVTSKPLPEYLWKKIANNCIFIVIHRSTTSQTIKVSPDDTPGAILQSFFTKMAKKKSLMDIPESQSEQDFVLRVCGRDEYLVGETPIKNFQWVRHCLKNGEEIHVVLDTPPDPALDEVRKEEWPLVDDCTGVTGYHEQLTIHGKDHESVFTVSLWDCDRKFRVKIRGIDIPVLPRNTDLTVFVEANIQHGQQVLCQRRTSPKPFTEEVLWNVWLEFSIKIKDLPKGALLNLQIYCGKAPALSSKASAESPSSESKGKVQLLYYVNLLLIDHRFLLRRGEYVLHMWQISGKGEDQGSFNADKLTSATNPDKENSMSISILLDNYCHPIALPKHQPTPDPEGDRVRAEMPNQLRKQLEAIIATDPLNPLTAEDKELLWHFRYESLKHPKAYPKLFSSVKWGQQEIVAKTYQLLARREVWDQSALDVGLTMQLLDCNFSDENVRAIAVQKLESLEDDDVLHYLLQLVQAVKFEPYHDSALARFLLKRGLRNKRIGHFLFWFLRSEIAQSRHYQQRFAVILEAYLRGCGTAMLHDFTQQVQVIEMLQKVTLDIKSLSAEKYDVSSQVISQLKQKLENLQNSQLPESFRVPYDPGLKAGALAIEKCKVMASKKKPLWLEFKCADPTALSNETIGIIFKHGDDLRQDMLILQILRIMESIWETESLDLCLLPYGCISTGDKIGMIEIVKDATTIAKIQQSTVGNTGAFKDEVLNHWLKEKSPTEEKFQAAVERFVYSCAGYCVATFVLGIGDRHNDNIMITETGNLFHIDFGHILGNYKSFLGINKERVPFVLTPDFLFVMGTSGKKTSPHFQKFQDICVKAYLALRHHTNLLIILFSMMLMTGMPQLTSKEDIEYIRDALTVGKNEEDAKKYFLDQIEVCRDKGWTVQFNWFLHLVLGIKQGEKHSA
Sequence of Phosphatidylinositol 4,5-bisphosphate 3-kinase catalytic subunit beta isoform (P42338 whole entry, canonical isoform): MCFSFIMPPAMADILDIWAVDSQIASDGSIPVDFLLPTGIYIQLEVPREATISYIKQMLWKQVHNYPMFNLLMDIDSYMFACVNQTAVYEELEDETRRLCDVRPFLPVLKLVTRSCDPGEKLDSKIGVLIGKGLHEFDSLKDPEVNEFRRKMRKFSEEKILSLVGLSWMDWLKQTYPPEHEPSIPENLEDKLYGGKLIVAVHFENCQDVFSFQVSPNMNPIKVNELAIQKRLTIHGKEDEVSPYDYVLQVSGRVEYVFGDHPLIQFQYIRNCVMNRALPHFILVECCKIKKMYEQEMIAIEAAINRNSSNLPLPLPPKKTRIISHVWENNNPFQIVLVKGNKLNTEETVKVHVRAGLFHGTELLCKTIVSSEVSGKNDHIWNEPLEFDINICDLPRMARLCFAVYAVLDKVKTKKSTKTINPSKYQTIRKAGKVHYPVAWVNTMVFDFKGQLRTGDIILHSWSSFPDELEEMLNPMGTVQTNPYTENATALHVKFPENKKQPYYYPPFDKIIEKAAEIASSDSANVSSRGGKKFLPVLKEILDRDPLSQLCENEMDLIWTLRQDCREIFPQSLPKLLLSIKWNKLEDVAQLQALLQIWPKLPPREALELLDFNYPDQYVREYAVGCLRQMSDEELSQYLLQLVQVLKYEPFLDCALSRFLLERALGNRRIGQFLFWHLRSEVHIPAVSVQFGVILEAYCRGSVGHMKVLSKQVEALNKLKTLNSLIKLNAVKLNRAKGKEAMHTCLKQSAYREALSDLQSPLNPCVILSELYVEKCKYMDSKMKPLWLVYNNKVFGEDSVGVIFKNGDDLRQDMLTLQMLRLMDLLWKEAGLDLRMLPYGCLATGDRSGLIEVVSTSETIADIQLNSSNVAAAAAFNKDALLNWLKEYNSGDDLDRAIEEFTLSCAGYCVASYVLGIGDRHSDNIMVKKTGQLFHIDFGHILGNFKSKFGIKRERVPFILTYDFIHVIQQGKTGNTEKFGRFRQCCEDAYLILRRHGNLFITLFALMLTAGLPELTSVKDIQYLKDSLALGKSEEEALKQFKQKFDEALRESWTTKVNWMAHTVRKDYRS

CNc1nc(C)nc(-n2c(Nc3cc[nH]n3)nc3ccccc32)n1
Activity [1]: 71%
inhibition [2]: 83%
inhibition [3]: 78%
inhibition (Rattus norvegicus [4]): Dose-dependent effect
AUC (Rattus norvegicus [5]): 1490 nM
AUC [6]: 2.03 µM·h
clearance [7]: 15.5 mL/min/kg
Vd [8]: 0.76 L/kg
AUC (Rattus norvegicus [9]): 3.6 µM
half-life [10]: 33.6 min
bioavailability [11]: 20.7%
fraction unbound [12]: 0.008
solubility [13]: 156 µg/mL (≈ 485 µM)
IC50 [14]: 0.081 µM
IC50 [15]: 0.6 µM
IC50 [16]: 0.1 µM
IC50 [17]: 2.2 µM
IC50 [18]: 4.5 µM
IC50 [19]: 0.89 µM
IC50 [20]: 3.2 µM

Cc1nc(NCC#N)nc(-n2c(Nc3cc[nH]n3)nc3ccccc32)n1
IC50 (BT-474): 0.2 µM
IC50 (UACC-893): 0.14 µM
IC50 (A-375): 0.38 µM
IC50 (A549): 0.43 µM
IC50 (Calu-6): 0.59 µM
IC50 (CAL-51): 0.32 µM
IC50 (COLO-829): 0.34 µM
IC50 (DU-4475): 0.53 µM
IC50 (HCC1954): 0.22 µM
IC50 (MCF7): 0.54 µM
IC50 (MDA-MB-231): 0.27 µM
IC50 (MDA-MB-468): 0.69 µM
IC50 (NCI-H2009): 0.42 µM
IC50 (NCI-H1975): 0.6 µM
IC50 (NCI-H460): 0.46 µM
IC50 (NCI-H82): 0.43 µM
IC50 (SK-MEL-28): 0.47 µM
IC50 [21]: 0.35 µM
inhibition [22]: 17%
inhibition [23]: inactive
